From patent US8871681B2, “Herbicidal compositions comprising 4-amino-3-chloro-5-fluoro-6-(4-chloro-2-fluoro-3-methoxyphenyl) pyridine-2-carboxylic acid or a derivative thereof and certain sulfonylureas” (Dow AgroSciences LLC, priority 2012, dated 2014) come the findings set out here.

The test system of assay [1] is CASOB (Cassia obtusifolia, sicklepod). As to the kind of experiment: Post-emergence herbicidal activity of mixtures in forage crops, greenhouse (Example IV). In kind it is in vivo, Cassia obtusifolia L. The note with it: Table 58 (forage), foliar-applied, after approximately 21 days. The procedure: (§1) Seeds or root cuttings of the desired test plant species were planted in Sun Gro MetroMix® 306 planting mixture, which typically has a pH of 6.0 to 6.8 and an organic matter content of about 30 percent, in plastic pots with a surface area of 126.6 square centimeters (cm^2). When required to ensure good germination and healthy plants, a fungicide treatment and/or other chemical or physical treatment was applied. The plants were grown for 14-60 days in a greenhouse with an approximate 14 hour photoperiod which was maintained at approximately 28° C. during the day and 24° C. during the night. Nutrients and water were added on a regular basis and supplemental lighting was provided with overhead metal halide 1000-Watt lamps as necessary. The plants were employed for testing when they reached the BBCH13 to BBCH23 leaf stage.
(§2) Treatments consisted of the benzyl ester of 4-amino-3-chloro-5-fluoro-6-(4-chloro-2-fluoro-3-methoxy-phenyl)pyridine-2-carboxylic acid (Compound A), formulated as a SC, and a second herbicide alone and in combination.
(§3) A measured aliquot of Compound A was placed in 25 milliliter (mL) glass vial and diluted in a volume of 1.25% (v/v) Agri-dex crop oil concentrated to obtain stock solutions. Compound requirements are based upon a 12 mL application volume at a rate of 187 liters per hectare (L/ha). Spray solutions of the second cereal herbicide and experimental compound mixtures were prepared by adding the stock solutions to the appropriate amount of dilution solution to form 12 mL spray solution with active ingredients in two- and three-way combinations. […]
(§4) The treated plants and control plants were placed in a greenhouse as described above and watered by sub-irrigation to prevent wash-off of the test compounds. After approximately 21 days, the condition of the test plants, as compared with that of the control plants, was determined visually and scored on a scale of 0 to 100 percent where 0 corresponds to no injury and 100 corresponds to complete kill. […]

In assay [2] the test system is POROL (Portulaca oleracea, portulaca). The description is as above. In kind it is in vivo, Portulaca oleracea L. The note with it: Table 58 (forage), foliar-applied, after approximately 21 days. The procedure: as §1, §2, §3, §4
Assay [3] deals with VIOTR (Viola tricolor, wild pansy). As to the kind of experiment: Post-emergence foliar-applied weed control in cereal crops, greenhouse (Example III). Type of assay: in vivo, Viola tricolor (L.). The note with it: 8.75 gai/ha alone. The procedure:
as §1, with “Seeds” for “Seeds or root cuttings”, “103.2” for “126.6”, “7-36” for “14-60”, “about 18°” for “approximately 28°”, “17°” for “24°”, “second or third true” for “BBCH13 to BBCH23”
Treatments consisted of the benzyl ester of 4-amino-3-chloro-5-fluoro-6-(4-chloro-2-fluoro-3-methoxy-phenyl)pyridine-2-carboxylic acid (Compound A), formulated as an SC (suspension concentrate), and a second cereal herbicide alone and in combination.
Measured aliquot of benzyl ester of 4-amino-3-chloro-5-fluoro-6-(4-chloro-2-fluoro-3-methoxy-phenyl)pyridine-2-carboxylic acid (Compound A) was placed in 25 milliliter (mL) glass vials and diluted in a volume of 1.25% (v/v) Agri-dex crop oil concentrated to obtain stock solutions. Compound requirements are based upon a 12 mL application volume at a rate of 187 liters per hectare (L/ha). Spray solutions of the second cereal herbicide and experimental compound mixtures were prepared by adding the stock solutions to the appropriate amount of dilution solution to form 12 mL spray solution with active ingredients in two- and three-way combinations. Formulated compounds were applied to the plant material with an overhead Mandel track sprayer equipped with an 8002E nozzle calibrated to deliver 187 L/ha over an application area of 0.503 square meters (m^2) at a spray height of 18 inches (46 cm) above average plant canopy. Control plants were sprayed in the same manner with the solvent blank.
The treated plants and control plants were placed in a greenhouse as described above and watered by sub-irrigation to prevent wash-off of the test compounds. After 20-22 days, the condition of the test plants as compared with that of the control plants was determined visually and scored on a scale of 0 to 100 percent where 0 corresponds to no injury and 100 corresponds to complete kill.
Colby's equation was used to determine the herbicidal effects expected from the mixtures (Colby, S. R. 1967. Calculation of the synergistic and antagonistic response of herbicide combinations. Weeds 15:20-22.).
The following equation was used to calculate the expected activity of mixtures containing two active ingredients, A and B: Expected=A+B−(A×B/100)

On to `COc1c(Cl)ccc(-c2nc(C(=O)OCc3ccccc3)c(Cl)c(N)c2F)c1F` [Compound A Benzyl Ester], for which the “Weed Control CASOB Obs” value in assay [1] (2.2 gai/ha alone) amounted to 33%; in assay [1] (4.4 gai/ha alone), 38%. Further, the “Weed Control POROL Obs” value in assay [2] (2.2 gai/ha alone) was determined as 47%; in assay [2] (4.4 gai/ha alone) it was 60%. For the same molecule, the “Weed Control VIOTR Obs” value is on record as 50% in assay [3] (Table 52, after 20-22 days) and 50% in assay [3] (Table 54, after 20-22 days).
